In article PMC3445516 (PLoS ONE, 2012):
Like-named read-outs stand apart in the source and are kept apart here. Blank lines part the entries; values can stand above or below the molecule they belong to.

Columns and labels:
Assay in all cases: Ambit kinase profiling, competition binding
[1] = biological target: T1, CLK2 (Homo sapiens, UniProt P49760)
T1 construct: purchased Ambit Biosciences (KINOMEscan)
Experimental: (§1) Also included in the kinase profile are four isoforms of PKC (δ, ε, η, θ) and eight isoforms of CAMKs (CAMKIα, δ, γ; CAMKIIα, β, δ, γ; CAMK4).
(§2) The global kinase profiling experiment was performed by Ambit Biosciences.

[2] = biological target: T2, CLK4 (Homo sapiens, UniProt Q9HAZ1)
T2 construct: purchased Ambit Biosciences (KINOMEscan)
Experimental: as §1, §2

[3] = biological target: T3, DMPK2 (Homo sapiens, UniProt Q6DT37)
T3 construct: purchased Ambit Biosciences (KINOMEscan)
T3 sequence (Q6DT37 whole entry): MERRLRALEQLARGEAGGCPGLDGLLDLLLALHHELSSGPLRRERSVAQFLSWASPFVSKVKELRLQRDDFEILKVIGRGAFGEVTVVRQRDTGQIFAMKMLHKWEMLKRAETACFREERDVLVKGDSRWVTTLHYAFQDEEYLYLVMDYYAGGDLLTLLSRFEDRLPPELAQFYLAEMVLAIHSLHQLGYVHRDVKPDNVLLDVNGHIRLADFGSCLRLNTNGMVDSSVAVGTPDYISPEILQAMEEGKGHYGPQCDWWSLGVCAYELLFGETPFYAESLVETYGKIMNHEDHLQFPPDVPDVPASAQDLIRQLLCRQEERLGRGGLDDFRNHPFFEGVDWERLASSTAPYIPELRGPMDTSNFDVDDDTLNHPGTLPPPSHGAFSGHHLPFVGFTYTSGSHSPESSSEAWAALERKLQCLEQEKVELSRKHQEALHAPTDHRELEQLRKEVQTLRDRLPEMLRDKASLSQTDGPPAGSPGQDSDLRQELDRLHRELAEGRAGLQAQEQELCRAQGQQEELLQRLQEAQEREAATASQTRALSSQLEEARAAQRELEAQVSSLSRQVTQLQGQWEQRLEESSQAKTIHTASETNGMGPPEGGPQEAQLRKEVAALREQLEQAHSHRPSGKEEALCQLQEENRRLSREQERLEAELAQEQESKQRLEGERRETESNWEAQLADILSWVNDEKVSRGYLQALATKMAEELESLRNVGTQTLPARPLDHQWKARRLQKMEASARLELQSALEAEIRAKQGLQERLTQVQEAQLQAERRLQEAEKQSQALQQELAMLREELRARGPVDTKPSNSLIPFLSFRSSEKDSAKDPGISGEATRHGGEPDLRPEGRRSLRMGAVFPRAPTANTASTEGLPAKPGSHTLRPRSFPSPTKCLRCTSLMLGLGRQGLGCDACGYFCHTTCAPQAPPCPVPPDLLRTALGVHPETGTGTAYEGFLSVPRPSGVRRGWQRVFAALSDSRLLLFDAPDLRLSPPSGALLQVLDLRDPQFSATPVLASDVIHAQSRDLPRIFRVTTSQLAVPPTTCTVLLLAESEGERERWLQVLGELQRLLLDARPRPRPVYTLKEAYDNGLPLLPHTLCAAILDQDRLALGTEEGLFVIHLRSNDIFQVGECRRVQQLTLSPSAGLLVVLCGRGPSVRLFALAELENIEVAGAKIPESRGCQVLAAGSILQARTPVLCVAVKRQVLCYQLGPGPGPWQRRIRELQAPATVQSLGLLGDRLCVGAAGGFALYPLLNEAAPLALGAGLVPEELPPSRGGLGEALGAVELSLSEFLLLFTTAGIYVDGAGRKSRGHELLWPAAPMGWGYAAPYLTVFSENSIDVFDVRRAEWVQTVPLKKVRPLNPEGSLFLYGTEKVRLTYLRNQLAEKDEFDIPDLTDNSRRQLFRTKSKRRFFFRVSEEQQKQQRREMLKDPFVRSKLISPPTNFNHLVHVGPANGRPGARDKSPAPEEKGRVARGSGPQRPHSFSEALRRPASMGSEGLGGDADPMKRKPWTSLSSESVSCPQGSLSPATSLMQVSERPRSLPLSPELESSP
Experimental: as §1, §2

[4] = biological target: T4, EPHA6 (Homo sapiens, UniProt Q9UF33)
T4 construct: purchased Ambit Biosciences (KINOMEscan)
T4 sequence (Q9UF33 23-1036): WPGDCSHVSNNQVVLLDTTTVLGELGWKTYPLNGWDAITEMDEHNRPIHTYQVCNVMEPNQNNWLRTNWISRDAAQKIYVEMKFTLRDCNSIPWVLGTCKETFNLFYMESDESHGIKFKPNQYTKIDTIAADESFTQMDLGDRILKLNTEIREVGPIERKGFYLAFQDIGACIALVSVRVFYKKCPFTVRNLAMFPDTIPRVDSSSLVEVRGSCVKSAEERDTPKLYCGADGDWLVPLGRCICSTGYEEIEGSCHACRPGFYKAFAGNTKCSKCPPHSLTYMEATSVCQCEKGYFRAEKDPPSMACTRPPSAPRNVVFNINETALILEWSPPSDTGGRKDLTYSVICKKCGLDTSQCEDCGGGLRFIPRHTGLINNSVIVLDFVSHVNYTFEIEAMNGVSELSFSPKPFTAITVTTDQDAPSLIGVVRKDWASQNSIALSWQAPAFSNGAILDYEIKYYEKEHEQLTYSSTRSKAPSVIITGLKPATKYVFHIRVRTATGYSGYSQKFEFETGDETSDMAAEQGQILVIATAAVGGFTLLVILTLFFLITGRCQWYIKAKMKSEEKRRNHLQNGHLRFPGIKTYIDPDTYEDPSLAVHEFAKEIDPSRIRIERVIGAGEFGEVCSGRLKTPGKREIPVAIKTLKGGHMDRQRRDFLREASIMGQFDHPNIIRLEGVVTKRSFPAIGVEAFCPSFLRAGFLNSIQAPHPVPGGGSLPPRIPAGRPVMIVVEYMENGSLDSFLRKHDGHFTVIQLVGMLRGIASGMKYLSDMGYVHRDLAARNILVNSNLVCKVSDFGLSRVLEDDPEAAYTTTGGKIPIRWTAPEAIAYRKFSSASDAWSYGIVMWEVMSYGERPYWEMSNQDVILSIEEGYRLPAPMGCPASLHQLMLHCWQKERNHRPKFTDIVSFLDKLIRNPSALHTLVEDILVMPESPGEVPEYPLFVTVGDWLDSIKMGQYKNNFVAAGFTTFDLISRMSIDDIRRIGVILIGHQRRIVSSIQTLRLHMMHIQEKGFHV
Experimental: as §1, §2

[5] = biological target: T5, ERK2 (Homo sapiens, UniProt P28482)
T5 construct: purchased Ambit Biosciences (KINOMEscan)
Experimental: as §1, §2

[6] = biological target: T6, ERK3 (Homo sapiens, UniProt Q16659)
T6 construct: purchased Ambit Biosciences (KINOMEscan)
Experimental: as §1, §2

[7] = biological target: T7, ERK4 (Homo sapiens, UniProt P31152)
T7 construct: purchased Ambit Biosciences (KINOMEscan)
T7 sequence (P31152 whole entry): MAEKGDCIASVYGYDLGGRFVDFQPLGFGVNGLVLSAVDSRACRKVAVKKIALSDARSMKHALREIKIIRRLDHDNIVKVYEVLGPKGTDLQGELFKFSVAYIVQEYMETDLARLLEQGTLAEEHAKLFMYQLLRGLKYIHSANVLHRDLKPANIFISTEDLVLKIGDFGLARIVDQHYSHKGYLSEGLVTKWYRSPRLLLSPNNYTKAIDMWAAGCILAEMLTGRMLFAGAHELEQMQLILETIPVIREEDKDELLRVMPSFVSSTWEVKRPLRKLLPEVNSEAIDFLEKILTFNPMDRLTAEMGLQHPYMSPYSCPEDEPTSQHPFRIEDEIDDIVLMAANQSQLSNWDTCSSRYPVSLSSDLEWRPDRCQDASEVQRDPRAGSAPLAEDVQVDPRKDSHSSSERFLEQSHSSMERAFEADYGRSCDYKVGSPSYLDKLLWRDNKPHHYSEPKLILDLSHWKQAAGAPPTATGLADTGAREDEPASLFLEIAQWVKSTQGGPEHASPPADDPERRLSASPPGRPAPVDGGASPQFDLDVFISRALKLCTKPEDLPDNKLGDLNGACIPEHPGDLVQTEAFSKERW
Experimental: as §1, §2

[8] = biological target: T8, LCK (Homo sapiens, UniProt P06239)
T8 construct: purchased Ambit Biosciences (KINOMEscan)
Experimental: as §1, §2

[9] = biological target: T9, MAP4K4 (Homo sapiens, UniProt O95819)
T9 construct: purchased Ambit Biosciences (KINOMEscan)
T9 sequence (O95819 whole entry): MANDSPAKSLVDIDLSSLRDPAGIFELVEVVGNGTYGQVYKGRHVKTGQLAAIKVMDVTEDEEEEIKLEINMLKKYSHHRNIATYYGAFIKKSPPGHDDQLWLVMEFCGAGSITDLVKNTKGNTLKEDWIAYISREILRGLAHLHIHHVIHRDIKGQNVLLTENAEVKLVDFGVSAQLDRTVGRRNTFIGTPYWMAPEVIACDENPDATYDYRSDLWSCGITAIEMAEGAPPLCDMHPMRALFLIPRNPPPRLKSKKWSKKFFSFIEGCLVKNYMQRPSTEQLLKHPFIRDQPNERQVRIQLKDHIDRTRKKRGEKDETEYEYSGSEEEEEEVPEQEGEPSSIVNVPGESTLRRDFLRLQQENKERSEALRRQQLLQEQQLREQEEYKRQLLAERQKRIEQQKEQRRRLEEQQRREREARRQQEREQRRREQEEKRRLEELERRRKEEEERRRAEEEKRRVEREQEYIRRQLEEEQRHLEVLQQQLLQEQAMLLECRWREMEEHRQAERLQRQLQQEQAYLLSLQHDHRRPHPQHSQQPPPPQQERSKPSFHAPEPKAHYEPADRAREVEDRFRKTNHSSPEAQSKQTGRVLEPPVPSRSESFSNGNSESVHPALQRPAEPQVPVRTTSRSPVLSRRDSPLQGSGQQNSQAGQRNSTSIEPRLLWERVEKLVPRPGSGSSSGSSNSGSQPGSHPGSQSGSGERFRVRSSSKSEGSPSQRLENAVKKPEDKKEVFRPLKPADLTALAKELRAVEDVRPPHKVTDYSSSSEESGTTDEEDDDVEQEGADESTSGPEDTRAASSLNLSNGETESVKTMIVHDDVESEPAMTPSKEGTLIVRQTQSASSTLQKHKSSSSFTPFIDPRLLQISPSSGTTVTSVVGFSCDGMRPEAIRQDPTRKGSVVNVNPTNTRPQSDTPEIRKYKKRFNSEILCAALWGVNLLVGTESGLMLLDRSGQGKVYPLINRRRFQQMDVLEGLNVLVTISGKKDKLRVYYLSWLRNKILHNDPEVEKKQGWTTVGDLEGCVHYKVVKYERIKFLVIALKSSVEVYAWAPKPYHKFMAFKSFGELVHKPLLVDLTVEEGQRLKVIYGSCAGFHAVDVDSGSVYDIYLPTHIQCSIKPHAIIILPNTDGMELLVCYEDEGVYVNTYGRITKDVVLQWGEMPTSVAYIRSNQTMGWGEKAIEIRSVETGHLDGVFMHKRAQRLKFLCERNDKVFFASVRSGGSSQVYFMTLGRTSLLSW
Experimental: as §1, §2

[10] = biological target: T10, PKC ε (Homo sapiens, UniProt Q02156); settings: for competition: PKC ε, 10 µM
T10 construct: purchased Ambit Biosciences (KINOMEscan)
T10 sequence (Q02156 1-737): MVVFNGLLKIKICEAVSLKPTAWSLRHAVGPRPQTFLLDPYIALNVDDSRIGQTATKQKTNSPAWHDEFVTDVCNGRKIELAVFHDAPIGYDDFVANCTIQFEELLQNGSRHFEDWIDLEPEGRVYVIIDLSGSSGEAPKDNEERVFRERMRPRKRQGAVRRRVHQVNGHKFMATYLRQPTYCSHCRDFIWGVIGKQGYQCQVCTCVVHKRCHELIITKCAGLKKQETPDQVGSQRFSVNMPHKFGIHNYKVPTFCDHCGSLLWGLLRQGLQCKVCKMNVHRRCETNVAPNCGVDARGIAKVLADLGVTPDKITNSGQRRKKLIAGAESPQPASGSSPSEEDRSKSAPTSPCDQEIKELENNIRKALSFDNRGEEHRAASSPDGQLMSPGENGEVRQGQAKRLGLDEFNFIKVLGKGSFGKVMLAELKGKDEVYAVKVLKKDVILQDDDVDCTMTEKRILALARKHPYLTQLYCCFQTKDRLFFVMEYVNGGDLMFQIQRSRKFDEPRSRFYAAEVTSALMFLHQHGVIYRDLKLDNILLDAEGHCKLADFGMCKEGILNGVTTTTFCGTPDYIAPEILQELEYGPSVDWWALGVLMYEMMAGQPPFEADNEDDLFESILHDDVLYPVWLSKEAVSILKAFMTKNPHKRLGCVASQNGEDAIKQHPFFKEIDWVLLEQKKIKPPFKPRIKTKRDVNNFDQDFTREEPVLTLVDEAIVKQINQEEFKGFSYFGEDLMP
Experimental: as §1, §2

[11] = biological target: T11, PKC η (Homo sapiens, UniProt P24723); settings: for competition: PKC η, 10 µM
T11 construct: purchased Ambit Biosciences (KINOMEscan)
T11 sequence (P24723 whole entry): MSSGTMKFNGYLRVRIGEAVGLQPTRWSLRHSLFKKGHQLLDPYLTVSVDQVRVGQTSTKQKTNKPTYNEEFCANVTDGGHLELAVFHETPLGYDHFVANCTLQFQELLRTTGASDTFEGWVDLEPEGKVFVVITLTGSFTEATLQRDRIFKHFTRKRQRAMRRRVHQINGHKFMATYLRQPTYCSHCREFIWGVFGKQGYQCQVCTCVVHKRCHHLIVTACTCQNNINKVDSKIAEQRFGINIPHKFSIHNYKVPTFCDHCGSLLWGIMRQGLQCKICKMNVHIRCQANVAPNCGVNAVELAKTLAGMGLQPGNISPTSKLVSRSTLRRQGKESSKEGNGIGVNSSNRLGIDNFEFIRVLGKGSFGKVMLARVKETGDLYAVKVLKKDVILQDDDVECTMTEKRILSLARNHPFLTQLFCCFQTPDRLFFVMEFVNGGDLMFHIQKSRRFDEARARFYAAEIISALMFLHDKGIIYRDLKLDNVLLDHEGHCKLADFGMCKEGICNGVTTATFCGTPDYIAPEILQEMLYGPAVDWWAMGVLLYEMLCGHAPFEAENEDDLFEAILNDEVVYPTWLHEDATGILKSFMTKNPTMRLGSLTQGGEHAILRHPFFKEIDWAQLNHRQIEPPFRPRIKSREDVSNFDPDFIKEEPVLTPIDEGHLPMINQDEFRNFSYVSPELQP
Experimental: as §1, §2

[12] = biological target: T12, SRC (Homo sapiens, UniProt P12931)
T12 construct: purchased Ambit Biosciences (KINOMEscan)
T12 sequence (P12931 whole entry): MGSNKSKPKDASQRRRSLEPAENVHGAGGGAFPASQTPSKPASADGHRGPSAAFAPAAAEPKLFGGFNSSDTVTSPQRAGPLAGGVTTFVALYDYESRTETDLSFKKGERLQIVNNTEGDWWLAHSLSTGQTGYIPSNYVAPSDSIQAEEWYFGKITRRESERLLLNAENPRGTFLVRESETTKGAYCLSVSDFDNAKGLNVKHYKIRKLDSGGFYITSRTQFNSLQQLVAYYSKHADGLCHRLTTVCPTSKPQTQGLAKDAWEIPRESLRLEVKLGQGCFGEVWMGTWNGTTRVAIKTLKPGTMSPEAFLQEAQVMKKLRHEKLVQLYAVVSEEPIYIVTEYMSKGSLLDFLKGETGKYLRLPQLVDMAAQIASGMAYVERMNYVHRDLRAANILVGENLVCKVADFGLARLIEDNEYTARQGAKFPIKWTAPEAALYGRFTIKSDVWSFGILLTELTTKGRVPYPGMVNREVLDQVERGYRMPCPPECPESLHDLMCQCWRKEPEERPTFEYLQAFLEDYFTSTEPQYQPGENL
Experimental: as §1, §2

[13] = biological target: T13, YANK2 (Homo sapiens, UniProt Q9NY57)
T13 construct: purchased Ambit Biosciences (KINOMEscan)
Experimental: as §1, §2

T1 sequence (P49760 whole entry): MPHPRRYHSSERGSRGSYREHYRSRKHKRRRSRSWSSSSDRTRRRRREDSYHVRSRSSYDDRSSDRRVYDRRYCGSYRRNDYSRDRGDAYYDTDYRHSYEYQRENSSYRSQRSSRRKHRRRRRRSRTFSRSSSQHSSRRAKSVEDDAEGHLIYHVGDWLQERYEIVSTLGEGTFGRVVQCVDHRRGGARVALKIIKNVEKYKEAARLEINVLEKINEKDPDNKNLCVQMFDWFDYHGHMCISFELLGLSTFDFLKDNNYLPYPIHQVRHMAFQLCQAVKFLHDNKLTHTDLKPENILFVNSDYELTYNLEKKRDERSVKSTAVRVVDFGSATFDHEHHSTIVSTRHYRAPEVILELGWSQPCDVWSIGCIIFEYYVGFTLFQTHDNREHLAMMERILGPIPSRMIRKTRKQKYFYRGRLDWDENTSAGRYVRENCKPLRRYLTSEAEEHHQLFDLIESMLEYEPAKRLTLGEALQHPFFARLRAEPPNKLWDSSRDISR

- inhibition at 10 µM ([1]; CLK2, compound concentration 10 uM, read-out: Percent Competition): 97%
- inhibition at 10 µM ([2]; CLK4, compound concentration 10 uM, read-out: Percent Competition): 88%
- inhibition at 10 µM ([3]; DMPK2, compound concentration 10 uM, read-out: Percent Competition): 100%
- inhibition at 10 µM ([4]; EPHA6, compound concentration 10 uM, read-out: Percent Competition): 93%
- inhibition at 10 µM ([5]; ERK2, compound concentration 10 uM, read-out: Percent Competition): 87%
- inhibition at 10 µM ([6]; ERK3, compound concentration 10 uM, read-out: Percent Competition): 98%
- inhibition at 10 µM ([7]; ERK4, compound concentration 10 uM, read-out: Percent Competition): 68%
- inhibition at 10 µM ([8]; LCK, compound concentration 10 uM, read-out: Percent Competition): 71%
- inhibition at 10 µM ([9]; MAP4K4, compound concentration 10 uM, read-out: Percent Competition): 84%
- inhibition at 10 µM ([10]; PRKCE, compound concentration 10 uM, read-out: Percent Competition): < 50%
- inhibition at 10 µM ([11]; PRKCH, compound concentration 10 uM, read-out: Percent Competition): < 50%
- inhibition at 10 µM ([12]; SRC, compound concentration 10 uM, read-out: Percent Competition): 87%
- inhibition at 10 µM ([13]; YANK2, compound concentration 10 uM, read-out: Percent Competition): 89%
SMILES: Fc1ccc(-c2c(-c3ccncc3)[nH]c3nccnc23)cc1 [RO1155697-000-005]

- inhibition at 10 µM ([1]; CLK2, 10 µM, read-out: % Competition): 97%
- inhibition at 10 µM ([2]; CLK4, 10 µM, read-out: % Competition): 88%
- inhibition at 10 µM ([3]; DMPK2, 10 µM, read-out: % Competition): 100%
- inhibition at 10 µM ([4]; EPHA6, 10 µM, read-out: % Competition): 93%
- inhibition at 10 µM ([5]; ERK2, 10 µM, read-out: % Competition): 87%
- inhibition at 10 µM ([6]; ERK3, 10 µM, read-out: % Competition): 98%
- inhibition at 10 µM ([7]; ERK4, 10 µM, read-out: % Competition): 68%
- inhibition at 10 µM ([8]; LCK, 10 µM, read-out: % Competition): 71%
- inhibition at 10 µM ([9]; MAP4K4, 10 µM, read-out: % Competition): 84%
- competition [10]: < 50%
- competition [11]: < 50%
- inhibition at 10 µM ([12]; SRC, 10 µM, read-out: % Competition): 87%
- inhibition at 10 µM ([13]; YANK2, 10 µM, read-out: % Competition): 89%
SMILES: Fc1ccc(-c2c(-c3ccncc3)[nH]c3nccnc23)cc1 [Compound 122]

SMILES: CC(O)CNc1cc(-c2[nH]c3cccnc3c2-c2ccc(F)cc2)ccn1 (stereo not drawn) [Compound 140]
- inhibition at 10 µM ([1]; read-out: % Competition): < 50%
- inhibition at 10 µM ([2]; read-out: % Competition): < 50%
- inhibition at 10 µM ([3]; read-out: % Competition): 74%
- inhibition at 10 µM ([4]; read-out: % Competition): < 50%
- inhibition at 10 µM ([5]; read-out: % Competition): < 50%
- inhibition at 10 µM ([6]; read-out: % Competition): < 50%
- inhibition at 10 µM ([7]; read-out: % Competition): < 50%
- inhibition at 10 µM ([8]; read-out: % Competition): < 50%
- inhibition at 10 µM ([9]; read-out: % Competition): < 50%
- competition [10]: < 50%
- competition [11]: < 50%
- inhibition at 10 µM ([12]; read-out: % Competition): < 50%
- inhibition at 10 µM ([13]; read-out: % Competition): < 50%
